According to patent publication US10159746B2, “Cyclodextrin complexation methods for formulating peptide proteasome inhibitors” (Onyx Therapeutics, Inc., priority 2012, dated 2018):
≈ marks a conversion by molar mass, not a printed value.

Columns and labels:
Format in all cases: physicochemical
[1] = Slurry-based complexation/solubilization of CFZ-API in SBECD with citric acid (Example 1); conditions: SBECD/WFI/citric acid slurry, 2-8° C., mixed a further 24 hours
Method: In a 525 L stainless steel jacketed cooled tank controlled to 2° C.-8° C., a suspension of 2.0 kg carfilzomib-API (CFZ-API), 246 kg water for injection (WFI), and 100 kg sulfobutylether beta-cyclodextrin (SBECD) was prepared. Specifically, in the 525 L stainless steel jacketed cooled tank controlled to 2° C.-8° C., 100 kg SBECD was dissolved in 246 kg WFI. The Carfilzomib suspension was then prepared using 2.0 kg of CFZ-API. Mixing was performed using an impeller mixer to maintain suspension of the CFZ-API solids and dissolve the SBECD. In the same vessel, a probe style rotor-stator high shear mixer (homogenizer) was used as well as the low shear impeller. The high shear mixer was operated for approximately 1 hour yielding an even suspension and reduction of particle size for any larger primary particles or agglomerated API. After a suspension was achieved, 1.96 kg of citric acid was added as a 16% aqueous solution. The pH of the solution was then lowered inducing partial solubilization of the CFZ-API followed by and complexation due to the presence of SBECD. Mixing was continued for a further 24 hours with both the impeller and the high shear mixer and a dissolved concentration of CFZ-API of greater than 5.1 mg/mL was achieved. […]

[2] = Chlorohydrin degradation product (CDP) formation in lyophilized carfilzomib/SBECD product by HPLC: pH, water and sodium chloride varied (Example 2)
Method: A multivariate statistical design of experiments was conducted to assess factors controlling the level of chlorohydrin degradation product as a function of processing parameters and storage time over six months. The complexation was performed in the proportion and parameters given in Example 1, with the following modifications: (i) the complexation process was performed at 2 L batch size; (ii) the final pH of solution before vial filling was varied for purposes of the experiment from 3.0, to 4.0; (iii) sodium chloride was spiked into SBECD in some experiments to create a high sodium chloride condition; (iv) water content of the lyophilized final product in stoppered vials was produced at high and low sodium chloride conditions via early termination and stoppering of vials to create a higher residual water content condition.
The solution of complexed carfilzomib for injection bulk solution pre-lyophilization included aqueous 5 mg/mL carfilzomib, 250 mg/mL Captisol® (SBECD) and 4.86 mg/mL citric acid, pH adjusted with aqueous sodium hydroxide. Compounding of the bulk solutions for lyophilization followed the procedure detailed in Example 1 with the following manipulations to create solutions with different specific attributes: • 1. pH was adjusted to 3.0 and 4.0 • 2. Sodium chloride was spiked into the Captisol® to create a “High Chloride” condition Captisol® manufactured by Cydex, a subsidiary of Ligand, has a standard product analysis range for sodium chloride from 0.05% to 0.2% (w/v). […] 400 g of this Captisol® was required per batch for the process to be performed at 2 L scale batches of complexation processing (in same proportions and general parameters per Example 1). To create the “high chloride” condition, 0.6 g of NaCl was added to 399.4 g of Captisol® which thus mimicked what a batch containing 0.2% chloride Captisol® would be comprised of.
In order to generate two (2) moisture content conditions in the final lyophilized vials, two (2) sets of 61.8 mg/vial (of CFZ-API) samples were lyophilized. The first cycle generated the “dry” sample set of vials containing approximately 0.6% residual water per Example 1 lyophilization parameters. For the second sample set, lyophilization was terminated and vials stoppered earlier in the secondary drying phase to generate the “wet” condition vials, with residual moisture approximately 2.4% water per vial initially.
The bulk solution of complexed carfilzomib was analyzed during manufacture by High Performance Liquid Chromatography (HPLC) to accurately quantify the concentration of dissolved and complexed carfilzomib drug substance. Subsequently, additional water was added to accurately dilute the bulk complexed solution. After this dilution step, HPLC was used again to ensure a target concentration of 5.0 mg/mL was achieved. Samples of the three (3) final bulk solutions were analyzed for potency and purity confirmation testing by HPLC. […] Karl Fischer Coulometry method was used for the water content determination in the lyophilized drug product.

[3] = Compounding study: dissolved carfilzomib versus time in 25% (w/v) SBE-β-CD (Example 5); conditions: CFZ-API suspension in 25% (w/v) SBE-β-CD solution, aqueous with cosolvent or surfactant or cyclodextrin, thermodynamic from solid, read-out: solubilized concentration during compounding
Method: SBE-β-CD was dissolved in WFI to achieve 25% (w/v) solution. A suspension of CFZ-API in the SBE-β-CD solution was prepared by homogenization per the solubility study
API solids were added in all experiments to theoretically yield a ˜6 mg/mL final solution to mimic the commercial process
After homogenization, pH was lowered using citric acids to affect solubilization, while continuing mixing up 24 hours. Then, all preparations were adjusted to pH 3.5. Dissolved concentration as a function of time was measured by sampling, filtration, then HPLC analysis to monitor the kinetics of complexation in the slurry based process.

dissolved concentration of CFZ-API [1]: greater than 5.1 mg/mL | % Area of CDP after 6 months (HPLC data) ([2]; 5° C., pH 3.00, water 0.7%, sodium chloride 0.05%): 0.00 % Area | % Area of CDP after 6 months (HPLC data) ([2]; 5° C., pH 3.00, water 0.7%, sodium chloride 0.2%): 0.13 % Area | % Area of CDP after 6 months (HPLC data) ([2]; 5° C., pH 3.00, water 2%, sodium chloride 0.05%): 0.02 % Area | % Area of CDP after 6 months (HPLC data) ([2]; 5° C., pH 3.00, water 2%, sodium chloride 0.2%): 0.28 % Area | % Area of CDP after 6 months (HPLC data) ([2]; 5° C., pH 4.00, water 0.7%, sodium chloride 0.05%): 0.00 % Area | % Area of CDP after 6 months (HPLC data) ([2]; 5° C., pH 4.00, water 0.7%, sodium chloride 0.2%): 0.08 % Area | % Area of CDP after 6 months (HPLC data) ([2]; 5° C., pH 4.00, water 2%, sodium chloride 0.05%): 0.02 % Area | % Area of CDP after 6 months (HPLC data) ([2]; 5° C., pH 4.00, water 2%, sodium chloride 0.2%): 0.18 % Area | % Area of CDP after 6 months (HPLC data) ([2]; 25° C., pH 3.00, water 0.7%, sodium chloride 0.05%): 0.14 % Area | % Area of CDP after 6 months (HPLC data) ([2]; 25° C., pH 3.00, water 0.7%, sodium chloride 0.2%): 0.70 % Area | % Area of CDP after 6 months (HPLC data) ([2]; 25° C., pH 3.00, water 2%, sodium chloride 0.05%): 0.55 % Area | % Area of CDP after 6 months (HPLC data) ([2]; 25° C., pH 4.00, water 0.7%, sodium chloride 0.05%): 0.09 % Area | % Area of CDP after 6 months (HPLC data) ([2]; 25° C., pH 4.00, water 0.7%, sodium chloride 0.2%): 0.36 % Area | % Area of CDP after 6 months (HPLC data) ([2]; 25° C., pH 4.00, water 2%, sodium chloride 0.05%): 0.35 % Area | solubility at 2 h ([3]; first 2 hours): 4500 µg/mL (≈ 6.25 mM) | solubility ([3]; slow equilibration phase, in >20 hours): 5500 µg/mL (≈ 7.64 mM)
Compound: CC(C)C[C@H](NC(=O)[C@H](CCc1ccccc1)NC(=O)CN1CCOCC1)C(=O)N[C@@H](Cc1ccccc1)C(=O)N[C@@H](CC(C)C)C(=O)[C@@]1(C)CO1 [carfilzomib]
